# Reference: paper PMC3969779 (Journal of molecular biology, 2013)
# Ends that are not written are not given here.
# T1: BRPF1 bromodomain (Homo sapiens, UniProt P55201)
# T1 sequence (P55201 629-742): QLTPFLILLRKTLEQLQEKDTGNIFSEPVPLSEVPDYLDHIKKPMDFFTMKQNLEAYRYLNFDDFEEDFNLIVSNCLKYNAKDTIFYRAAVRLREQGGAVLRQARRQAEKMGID
# T2: Histone H4K8ac peptide (4-17) (Homo sapiens, H4 K8 acetylated)
# T2 chain: GKGGKGLGKGGAKR
# T3: Histone H3K14ac peptide (8-19) (Homo sapiens)
# T3 chain: RKSTGGK(Ac)APRKQ
# T4: Histone H4K12ac peptide (4-17) (Homo sapiens)
# T4 chain: GKGGKGLGK(Ac)GGAKR
# T5: Histone H2AK5ac peptide (1-12) (Homo sapiens)
# T5 chain: SGRGK(Ac)QGGKARA
# Assays:
# [1] = molecular target: T1, BRPF1 bromodomain; assay: Isothermal titration calorimetry; format: binding
# [2] = molecular target: T1, BRPF1 bromodomain; assay: NMR titration; format: binding
# [3] = molecular target: T2, Histone H4K8ac peptide (4-17); assay: NMR titration
# [4] = molecular target: T3, Histone H3K14ac peptide (8-19); assay: NMR titration
# [5] = molecular target: T4, Histone H4K12ac peptide (4-17); assay: NMR titration
# [6] = molecular target: T5, Histone H2AK5ac peptide (1-12); assay: NMR titration
Molecule,Kd [1],Kd [3],Kd [4],Kd [5],Kd [6],Kd [2]
CC(=O)NCCCC[C@H](NC(=O)CNC(=O)CNC(=O)[C@@H](NC(=O)[C@H](CO)NC(=O)[C@H](CCCCN)NC(=O)[C@@H](N)CCCNC(=N)N)[C@@H](C)O)C(=O)N[C@@H](C)C(=O)N1CCC[C@H]1C(=O)N[C@@H](CCCNC(=N)N)C(=O)N[C@@H](CCCCN)C(=O)N[C@@H](CCC(N)=O)C(N)=O [H3K14ac (8-19)],626 ± 27 µM,–,–,–,–,597 ± 53 µM
CC(=O)NCCCC[C@H](NC(=O)CNC(=O)CNC(=O)[C@H](CCCCN)NC(=O)CN)C(=O)NCC(=O)N[C@@H](CC(C)C)C(=O)NCC(=O)N[C@@H](CCCCN)C(=O)NCC(=O)NCC(=O)N[C@@H](C)C(=O)N[C@@H](CCCCN)C(=O)N[C@@H](CCCNC(=N)N)C(N)=O [H4K8ac (4-17)],–,–,–,–,–,697 ± 57 µM
BRPF1 bromodomain 629-742 (protein) QLTPFLILLRKTLEQLQEKDTGNIFSEPVPLSEVPDYLDHIKKPMDFFTMKQNLEAYRYLNFDDFEEDFNLIVSNCLKYNAKDTIFYRAAVRLREQGGAVLRQARRQAEKMGID,–,697 µM,597 µM,74 µM,57 µM,–

# Second part, led by results:
Kd [1],Kd [3],Kd [4],Kd [5],Kd [6],Molecule,Kd [2]
86.5 ± 9.1 µM,–,–,–,–,CC(=O)NCCCC[C@H](NC(=O)CNC(=O)[C@H](CC(C)C)NC(=O)CNC(=O)[C@H](CCCCN)NC(=O)CNC(=O)CNC(=O)[C@H](CCCCN)NC(=O)CN)C(=O)NCC(=O)NCC(=O)N[C@@H](C)C(=O)N[C@@H](CCCCN)C(=O)N[C@@H](CCCNC(=N)N)C(N)=O [H4K12ac (4-17)],74 ± 18 µM
48.5 ± 1.5 µM,–,–,–,–,SGRGK(Ac)QGGKARA-NH2 [H2AK5ac (1-12)],57 ± 4 µM
